Experimental data: PMC6010143, “Synthesis of new pyridothienopyrimidinone derivatives as Pim-1 inhibitors” (Journal of Enzyme Inhibition and Medicinal Chemistry, 2017)
Like-named read-outs stand apart in the source and are kept apart here. Blank lines part the entries; values can stand above or below the molecule they belong to.

Assays:
pim-1 = settings: cited from earlier work
pim-2 = settings: cited from earlier work
pim-1 kinase = target: T1, pim-1 kinase (Homo sapiens, UniProt P11309); test: Pim-1 kinase radioisotope (33P-ATP) assay, Kinexus compound profiling service; format: biochemical; settings: for pim-1 inhibition, in words: at 50 μM
T1 construct: The kinase used was cloned, expressed and purified using proprietary methods
T1 sequence (P11309 whole entry): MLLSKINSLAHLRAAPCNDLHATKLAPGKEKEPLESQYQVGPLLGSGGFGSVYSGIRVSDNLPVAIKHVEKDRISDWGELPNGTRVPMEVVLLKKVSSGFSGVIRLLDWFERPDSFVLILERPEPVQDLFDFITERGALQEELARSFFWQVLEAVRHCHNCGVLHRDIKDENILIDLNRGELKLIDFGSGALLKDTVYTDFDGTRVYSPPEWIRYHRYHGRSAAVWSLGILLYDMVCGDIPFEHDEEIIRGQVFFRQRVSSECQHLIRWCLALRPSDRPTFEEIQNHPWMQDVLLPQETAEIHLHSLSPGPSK
Procedure: The kinase inhibitory activity of the synthesized compounds was determined using the Kinexus compound profiling service, Canada. All the compounds were tested for their inhibitory activity against pim-1 kinase at 50 μM. The kinase used was cloned, expressed and purified using proprietary methods. Quality control testing is routinely performed to ensure compliance to acceptable standards. ^33P-ATP was purchased from PerkinElmer. All other materials were of standard laboratory grade.
The protein kinase target profiling was executed via employing a radioisotope assay format. All the assays were performed in a prepared radioactive working area. The protein kinase profiling assays were performed at room temperature for 20–30 min in a final volume of 25 μL according to the following assay reaction components: Component 1; 5 μl of diluted active protein kinase (∼10–50 nM final concentration in the assay). Component 2; 5 μl of stock solution of substrate. Component 3; 5 μl of kinase assay buffer. Component 4; 5 μl of the test compound, Staurosporine at 1 μM or 10% DMSO.
The assay was initiated by the addition of ^33P-ATP, followed by incubation at ambient temperature for 30 min. The assay was then terminated by spotting 10 μL of the reaction mixture onto a Multiscreen phosphocellulose P81 plate. The Multiscreen phosphocellulose P81 plate was washed three times for approximately 15 min each in a 1% phosphoric acid solution. The radioactivity on the P81 plate was counted in the presence of scintillation fluid in a Trilux scintillation counter. Blank control was set up that included all the assay components except the addition of the appropriate substrate (replaced with equal volume of assay dilution buffer). The corrected activity for protein kinase target was determined by removing the blank control value.

[1] = test system: human breast adenocarcinoma (MCF7); test: MTT cytotoxicity assay, MCF7; format: cell-based; settings: for IC50: 72 h exposure, means of three experiments
Procedure: (§1) Cancer cells from different cancer cell lines were purchased from American type Cell Culture collection (ATCC, Manassas, VA). The cell lines used in this study were human breast adenocarcinoma (MCF7), human colon adenocarcinoma (HCT116) and human prostate cancer cells (PC3). The cell lines were grown on the appropriate growth medium Dulbecco's modified Eagle's medium (DMEM) or Roswell Park Memorial Institute medium (RPMI 1640) supplemented with […] of streptomycin, 100 units/mL of penicillin and 10% of heat-inactivated fetal bovine serum in a humidified, 5% (v/v) CO2 atmosphere at 37 °C.
(§2) Exponentially growing cells from different cancer cell lines were trypsinized, counted and seeded at the appropriate densities (2000–10 000 cells/0.33 cm^2 well) into 96-well microtiter plates. The cells were incubated in a humidified atmosphere at 37°C for 24 h. Then, the cells were exposed to different concentrations of compounds 6c, 7a, 7c, 7d, 8b and 9 (0.1, 10, 100 and 1000 μM) for 72 h. The viability of the treated cells was determined using MTT technique. The media were removed; cells were incubated with 200 μL of 5% MTT solution/well (Sigma Aldrich, St. Louis, MO) and were allowed to metabolize the dye into colored-insoluble formazan crystals for 2 h. The remaining MTT solution was discarded from the wells and the formazan crystals were dissolved in 200 μL/well-acidified isopropanol for 30 min, covered with aluminum foil and with continuous shaking using a MaxQ 2000 plate shaker (Thermo Fisher Scientific Inc, MI) at room temperature. The absorbance was measured at 570 nm using a Stat FaxR 4200 plate reader (Awareness Technology, Inc., Palm City, FL). […] The results are shown in Table 2 and represented graphically in Figure 5.

[2] = test system: human colon adenocarcinoma (HCT116); test: MTT cytotoxicity assay, HCT116; format: cell-based; settings: for IC50: 72 h exposure, means of three experiments
Procedure: as §1, §2

[3] = test system: human prostate cancer cells (PC3); test: MTT cytotoxicity assay, PC3; format: cell-based; settings: for IC50: 72 h exposure, means of three experiments
Procedure: as §1, §2

pim-3 = settings: cited from earlier work

IC50 (pim-1 kinase): > 100 µM
inhibition at 50 µM (pim-1 kinase; test compounds at 50 μM): 36%
melting point: > 300 °C
Structure (SMILES): Cc1nc2sc3c(=O)[nH]c(-c4ccccc4Cl)nc3c2c(C)c1Br [Compound 6a, 8-Bromo-2-(2-chlorophenyl)-7,9-dimethylpyrido[3',2':4,5]thieno[3,2-d]pyrimidin-4(3H)-one]

pim-1 inhibition, in words (pim-1 kinase): moderate
inhibition at 50 µM (pim-1 kinase; test compounds at 50 μM): 61%
melting point: 295 to 296 °C
Structure (SMILES): Cc1nc2sc3c(=O)[nH]c(-c4ccccc4F)nc3c2c(C)c1Br [Compound 6b, 8-Bromo-2-(2-fluorophenyl)-7,9-dimethylpyrido[3',2':4,5]thieno[3,2-d]pyrimidin-4(3H)-one]

IC50 (pim-1 kinase): 4.62 ± 0.039 µM
inhibition at 50 µM (pim-1 kinase; test compounds at 50 μM): 85%
Structure (SMILES): Cc1nc2sc3c(=O)[nH]c(-c4ccccc4O)nc3c2c(C)c1Br [Compound 6c, 8-Bromo-2-(2-hydroxyphenyl)-7,9-dimethylpyrido[3',2':4,5]thieno[3,2-d]pyrimidin-4(3H)-one]
cytotoxic activity on MCF7, in words [1]: moderate
IC50 ([1]; Homo sapiens, MCF7, 72 h): 35.5 ± 1.3 µM
cytotoxic activity on HCT116, in words [2]: moderate
IC50 ([2]; Homo sapiens, HCT-116, 72 h): 63.3 ± 4.5 µM
cytotoxic activity on PC3, in words [3]: moderate
IC50 ([3]; Homo sapiens, 72 h): 60.1 ± 4.65 µM

pim-1 inhibition, in words (pim-1 kinase): moderate
inhibition at 50 µM (pim-1 kinase; test compounds at 50 μM): 54%
melting point: 255 to 256 °C
Structure (SMILES): Cc1nc2sc3c(=O)[nH]c(-c4ccccc4C(F)(F)F)nc3c2c(C)c1Br [Compound 6d, 8-Bromo-7,9-dimethyl-2-[2-(trifluoromethyl)phenyl]pyrido[3',2':4,5]thieno[3,2-d]pyrimidin-4(3H)-one]

IC50 (pim-1 kinase): 1.18 ± 0.14 µM
inhibition at 50 µM (pim-1 kinase; test compounds at 50 μM): 81%
Structure (SMILES): Cc1nc2sc3c(c2c(C)c1Br)NC(c1ccccc1Cl)NC3=O (stereo not shown) [Compound 7a, 8-Bromo-2-(2-chlorophenyl)-7,9-dimethyl-2,3-dihydropyrido[3',2':4,5]thieno[3,2-d]pyrimidin-4(1H)-one]
IC50 [1]: 23.8 ± 0.4 µM
IC50 ([1]; Homo sapiens, MCF7, 72 h): 18 to 38 µM
IC50 [2]: 18.3 ± 0.68 µM
IC50 ([2]; Homo sapiens, HCT-116, 72 h): 18 to 38 µM
IC50 [3]: 24.2 ± 0.91 µM
IC50 ([3]; Homo sapiens, 72 h): 18 to 38 µM

pim-1 inhibition, in words (pim-1 kinase): moderate
inhibition at 50 µM (pim-1 kinase; test compounds at 50 μM): 66%
melting point: 292 to 293 °C
Structure (SMILES): Cc1nc2sc3c(c2c(C)c1Br)NC(c1ccccc1F)NC3=O (stereo not shown) [Compound 7b, 8-Bromo-2-(2-fluorophenyl)-7,9-dimethyl-2,3-dihydropyrido[3',2':4,5]thieno[3,2-d]pyrimidin-4(1H)-one]

IC50 (pim-1 kinase): 1.38 ± 0.025 µM
inhibition at 50 µM (pim-1 kinase; test compounds at 50 μM): 93%
Structure (SMILES): Cc1nc2sc3c(c2c(C)c1Br)NC(c1ccccc1O)NC3=O (stereo not shown) [Compound 7c, 8-Bromo-2-(2-hydroxyphenyl)-7,9-dimethyl-2,3-dihydropyrido[3',2':4,5]thieno[3,2-d]pyrimidin-4(1H)-one]
cytotoxic activity on MCF7, in words [1]: moderate
IC50 ([1]; Homo sapiens, MCF7, 72 h): 59.6 ± 1.2 µM
cytotoxic activity on HCT116, in words [2]: moderate
IC50 ([2]; Homo sapiens, HCT-116, 72 h): 181 ± 5.03 µM
cytotoxic activity on PC3, in words [3]: moderate
IC50 ([3]; Homo sapiens, 72 h): 58.2 ± 3.48 µM

IC50 (pim-1 kinase): 1.97 ± 0.022 µM
inhibition at 50 µM (pim-1 kinase; test compounds at 50 μM): 98%
Structure (SMILES): Cc1nc2sc3c(c2c(C)c1Br)NC(c1ccccc1C(F)(F)F)NC3=O (stereo not shown) [Compound 7d, 8-Bromo-7,9-dimethyl-2-[2-(trifluoromethyl)phenyl]-2,3-dihydropyrido[3',2':4,5]thieno[3,2-d]pyrimidin-4(1H)-one]
IC50 [1]: 30.2 ± 0.8 µM
IC50 ([1]; Homo sapiens, MCF7, 72 h): 18 to 38 µM
IC50 [2]: 30 ± 0.55 µM
IC50 ([2]; Homo sapiens, HCT-116, 72 h): 18 to 38 µM

The remaining lines, values behind:

Structure (SMILES): O=C(O)c1ccc2c(c1)nc(Nc1cccc(Cl)c1)c1ccncc12 [CX-4595]
IC50 (pim-1; Figure 1): 0.048 µM
IC50 (pim-2; Figure 1): 0.186 µM

Structure (SMILES): Cc1nc2sc(C(N)=O)c(N)c2c(C)c1Br [Compound 4, 3-Amino-5-bromo-4,6-dimethylthieno[2,3-b]pyridine-2-carboxamide]
inhibition at 50 µM (pim-1 kinase; test compounds at 50 μM): 16%
melting point: 260 to 261 °C

Structure (SMILES): Cc1nc2sc3c(=O)[nH]cnc3c2c(C)c1Br [Compound 5, 8-bromo-7,9-dimethylpyrido[3′,2′:4,5]thieno[3,2-d]pyrimidin-4(3H)-one]
inhibition at 50 µM (pim-1 kinase; test compounds at 50 μM): 37%

Structure (SMILES): Cc1nc2c(sc3nc(C)c(Br)c(C)c32)c(=O)[nH]1 [Compound 8a, 8-Bromo-2,7,9-trimethylpyrido[3',2':4,5]thieno[3,2–d]pyrimidin-4(3H)-one]
pim-1 inhibition, in words (pim-1 kinase): moderate
inhibition at 50 µM (pim-1 kinase; test compounds at 50 μM): 51%
melting point: > 300 °C

Structure (SMILES): Cc1nc2sc3c(=O)[nH]c(C(F)(F)F)nc3c2c(C)c1Br [Compound 8b, 8-Bromo-7,9-dimethyl-2-(trifluoromethyl)pyrido[3',2':4,5]thieno[3,2-d]pyrimidin-4(3H)-one]
IC50 (pim-1 kinase): 8.83 ± 0.028 µM
inhibition at 50 µM (pim-1 kinase; test compounds at 50 μM): 96%
cytotoxic activity on MCF7, in words [1]: potent
IC50 ([1]; Homo sapiens, MCF7, 72 h): 28.6 ± 1 µM
cytotoxic activity on HCT116, in words [2]: potent
IC50 ([2]; Homo sapiens, HCT-116, 72 h): 23.5 ± 0.53 µM
cytotoxic activity on PC3, in words [3]: moderate
IC50 ([3]; Homo sapiens, 72 h): 59.9 ± 2.48 µM

Structure (SMILES): CCc1nc2c(sc3nc(C)c(Br)c(C)c32)c(=O)[nH]1 [Compound 8c, 8-Bromo-2-ethyl-7,9-dimethylpyrido[3',2':4,5]thieno[3,2-d]pyrimidin-4(3H)-one]
inhibition at 50 µM (pim-1 kinase; test compounds at 50 μM): 23%
% Inhibition of pim-1 kinase (pim-1 kinase; test compounds at 50 μM, 50 µM): 17%
melting point: > 300 °C

Structure (SMILES): CC(=O)Cc1nc2c(sc3nc(C)c(Br)c(C)c32)c(=O)[nH]1 [Compound 9, 8-Bromo-7,9-dimethyl-2-(2-oxopropyl)pyrido[3',2':4,5]thieno[3,2-d]pyrimidin-4(3H)-one]
IC50 (pim-1 kinase): 4.18 ± 0.076 µM
inhibition at 50 µM (pim-1 kinase; test compounds at 50 μM): 89%
cytotoxic activity on MCF7, in words [1]: weak
IC50 ([1]; Homo sapiens, MCF7, 72 h): 123 ± 12 µM
cytotoxic activity on HCT116, in words [2]: weak
IC50 ([2]; Homo sapiens, HCT-116, 72 h): 151 ± 4.04 µM
cytotoxic activity on PC3, in words [3]: weak
IC50 ([3]; Homo sapiens, 72 h): 183 ± 12.1 µM

Structure (SMILES): CCOC(=O)Cc1nc2c(sc3nc(C)c(Br)c(C)c32)c(=O)[nH]1 [Compound 10, Ethyl (8-bromo-7,9-dimethyl-4-oxo-3,4-dihydropyrido[3',2':4,5]thieno[3,2-d]pyrimidin-2-yl)acetate]
pim-1 inhibition, in words (pim-1 kinase): poor
inhibition at 50 µM (pim-1 kinase; test compounds at 50 μM): 31%
melting point: 277 to 278 °C

Structure (SMILES): Cc1nc2sc3c(=O)[nH]c(CC(=O)O)nc3c2c(C)c1Br [Compound 11, (8-Bromo-7,9-dimethyl-4-oxo-3,4-dihydropyrido[3',2':4,5]thieno[3,2-d]pyrimidin-2-yl)acetic acid]
pim-1 inhibition, in words (pim-1 kinase): poor
inhibition at 50 µM (pim-1 kinase; test compounds at 50 μM): 19%
melting point: > 300 °C

Structure (SMILES): NC1CCN(c2ccncc2NC(=O)c2ccc(F)c(-c3c(F)cccc3F)n2)CC1O (stereo not shown) [LGB321]
Ki (pim-1; Figure 1): 0.001 nM
Ki (pim-2; Figure 1): 0.0021 nM

Structure (SMILES): CC(C)(O)[C@H]1CC[C@H](Nc2ccc3ncc(-c4cccc(C(F)(F)F)c4)n3n2)CC1 [SGI-9481]
Ki (pim-1; Figure 1): 5 nM
Ki (pim-2; Figure 1): 239 nM
Ki (pim-3; Figure 1): 0.042 µM

Structure (SMILES): CN[C@@H]1C[C@H]2O[C@@](C)([C@@H]1OC)n1c3ccccc3c3c4c(c5c6ccccc6n2c5c31)C(=O)NC4 [Staurosporine, reference compound]
inhibition at 1 µM (pim-1 kinase; read-out: % Inhibition of pim-1 kinase): 93%

Structure (SMILES): O=c1[nH]c(CNc2cccc(O)c2)nc2c1sc1ccc(Br)cc12 [VII]
Ki (pim-1; Figure 3): 0.8 nM
Ki (pim-2; Figure 3): 60 nM
Ki (pim-3; Figure 3): 0.004 µM

Structure (SMILES): CN(C)Cc1nc2c(sc3ccc(-c4ccc(O)cc4)cc32)c(=O)[nH]1 [VI]
Ki (pim-1; Figure 3): 2 nM
Ki (pim-2; Figure 3): 3 nM
Ki (pim-3; Figure 3): 0.0005 µM

Structure (SMILES): COc1ccc(N2CCN(C(=O)c3sc4nc(C)c(Br)c(C)c4c3N)CC2)cc1 [V]
IC50 (pim-1; Figure 2, earlier thieno[2,3-b]pyridine): 12.7 µM
